Source: ChEMBL document CHEMBL1781873, “Synthesis and antibacterial property of pyrrolopyrano quinolinones and pyrroloquinolines” (2011)
Converted amounts (≈) assume the structure as drawn. The source made the active and inactive calls. The calls are words filed in the database; no cut-off is given here.

Legend:
Escherichia coli [1] = experiment: Inhibition of Escherichia coli DNA gyrase assessed as inhibition of DNA supercoiling activity using pBR322 DNA as substrate at […] after 3 hrs by agarose gel electrophoresis
Salmonella typhi [2] = experiment: Antibacterial activity against Salmonella typhi at 5 ug after 24 hrs by disc diffusion assay; assay type: functional, Salmonella enterica subsp. enterica serovar Typhi; details: Salmonella enterica, read-out: IZ
Escherichia coli [3] = experiment: Inhibition of DNA gyrase mRNA expression in Escherichia coli measured up to 24 hrs by RT-PCR; assay type: functional, organism-based
Escherichia coli [4] = experiment: Antibacterial activity against Escherichia coli at 5 ug after 24 hrs by disc diffusion assay; assay type: functional; details: read-out: IZ
Klebsiella pneumoniae [5] = experiment: Antibacterial activity against Klebsiella pneumoniae at 5 ug after 24 hrs by disc diffusion assay; assay type: functional; details: read-out: IZ
Bacillus subtilis [6] = experiment: Antibacterial activity against Bacillus subtilis after 18 to 20 hrs by broth micro dilution assay; assay type: functional
Pseudomonas aeruginosa [7] = experiment: Antibacterial activity against Pseudomonas aeruginosa at 10 ug after 24 hrs by disc diffusion assay; assay type: functional; details: read-out: IZ
Staphylococcus aureus [8] = experiment: Antibacterial activity against Staphylococcus aureus at 25 ug after 24 hrs by disc diffusion assay; assay type: functional; details: read-out: IZ
Escherichia coli [9] = experiment: Antibacterial activity against Escherichia coli at 10 ug after 24 hrs by disc diffusion assay; assay type: functional; details: read-out: IZ
Staphylococcus aureus [10] = experiment: Antibacterial activity against Staphylococcus aureus at 5 ug after 24 hrs by disc diffusion assay; assay type: functional; details: read-out: IZ
Pseudomonas aeruginosa [11] = experiment: Antibacterial activity against Pseudomonas aeruginosa after 18 to 20 hrs by broth micro dilution assay; assay type: functional
Escherichia coli [12] = experiment: Antibacterial activity against Escherichia coli at 15 ug after 24 hrs by disc diffusion assay; assay type: functional; details: read-out: IZ
Salmonella typhi [13] = experiment: Antibacterial activity against Salmonella typhi at 20 ug after 24 hrs by disc diffusion assay; assay type: functional, Salmonella enterica subsp. enterica serovar Typhi; details: Salmonella enterica, read-out: IZ
Staphylococcus aureus [14] = experiment: Antibacterial activity against Staphylococcus aureus at 20 ug after 24 hrs by disc diffusion assay; assay type: functional; details: read-out: IZ
Klebsiella pneumoniae [15] = experiment: Antibacterial activity against Klebsiella pneumoniae at 20 ug after 24 hrs by disc diffusion assay; assay type: functional; details: read-out: IZ
Pseudomonas aeruginosa [16] = experiment: Antibacterial activity against Pseudomonas aeruginosa at 20 ug after 24 hrs by disc diffusion assay; assay type: functional; details: read-out: IZ
Salmonella typhi [17] = experiment: Antibacterial activity against Salmonella typhi at 10 ug after 24 hrs by disc diffusion assay; assay type: functional, Salmonella enterica subsp. enterica serovar Typhi; details: Salmonella enterica, read-out: IZ
Pseudomonas aeruginosa [18] = experiment: Antibacterial activity against Pseudomonas aeruginosa at 5 ug after 24 hrs by disc diffusion assay; assay type: functional; details: read-out: IZ
Salmonella typhi [19] = experiment: Antibacterial activity against Salmonella typhi after 18 to 20 hrs by broth micro dilution assay; assay type: functional, Salmonella enterica subsp. enterica serovar Typhi; details: Salmonella enterica
Escherichia coli [20] = experiment: Antibacterial activity against Escherichia coli after 18 to 20 hrs by broth micro dilution assay; assay type: functional
Bacillus subtilis [21] = experiment: Antibacterial activity against Bacillus subtilis at 10 ug after 24 hrs by disc diffusion assay; assay type: functional; details: read-out: IZ
Escherichia coli [22] = experiment: Inhibition of Escherichia coli DNA gyrase -mediated DNA relaxation using pBR322 DNA as substrate at […] after 1 hrs by agarose gel electrophoresis
Salmonella typhi [23] = experiment: Antibacterial activity against Salmonella typhi at 15 ug after 24 hrs by disc diffusion assay; assay type: functional, Salmonella enterica subsp. enterica serovar Typhi; details: Salmonella enterica, read-out: IZ
Bacillus subtilis [24] = experiment: Antibacterial activity against Bacillus subtilis at 15 ug after 24 hrs by disc diffusion assay; assay type: functional; details: read-out: IZ
Bacillus subtilis [25] = experiment: Antibacterial activity against Bacillus subtilis at 25 ug after 24 hrs by disc diffusion assay; assay type: functional; details: read-out: IZ
Klebsiella pneumoniae [26] = experiment: Antibacterial activity against Klebsiella pneumoniae after 18 to 20 hrs by broth micro dilution assay; assay type: functional
Pseudomonas aeruginosa [27] = experiment: Antibacterial activity against Pseudomonas aeruginosa at 15 ug after 24 hrs by disc diffusion assay; assay type: functional; details: read-out: IZ
Escherichia coli [28] = experiment: Antibacterial activity against Escherichia coli at 25 ug after 24 hrs by disc diffusion assay; assay type: functional; details: read-out: IZ
Staphylococcus aureus [29] = experiment: Antibacterial activity against Staphylococcus aureus after 18 to 20 hrs by broth micro dilution assay; assay type: functional
Klebsiella pneumoniae [30] = experiment: Antibacterial activity against Klebsiella pneumoniae at 25 ug after 24 hrs by disc diffusion assay; assay type: functional; details: read-out: IZ
Escherichia coli [31] = experiment: Antibacterial activity against Escherichia coli at 20 ug after 24 hrs by disc diffusion assay; assay type: functional; details: read-out: IZ
Pseudomonas aeruginosa [32] = experiment: Antibacterial activity against Pseudomonas aeruginosa at 25 ug after 24 hrs by disc diffusion assay; assay type: functional; details: read-out: IZ
Klebsiella pneumoniae [33] = experiment: Antibacterial activity against Klebsiella pneumoniae at 10 ug after 24 hrs by disc diffusion assay; assay type: functional; details: read-out: IZ
Staphylococcus aureus [34] = experiment: Antibacterial activity against Staphylococcus aureus at 10 ug after 24 hrs by disc diffusion assay; assay type: functional; details: read-out: IZ
Bacillus subtilis [35] = experiment: Antibacterial activity against Bacillus subtilis at 20 ug after 24 hrs by disc diffusion assay; assay type: functional; details: read-out: IZ
Staphylococcus aureus [36] = experiment: Antibacterial activity against Staphylococcus aureus at 15 ug after 24 hrs by disc diffusion assay; assay type: functional; details: read-out: IZ
Klebsiella pneumoniae [37] = experiment: Antibacterial activity against Klebsiella pneumoniae at 15 ug after 24 hrs by disc diffusion assay; assay type: functional; details: read-out: IZ
Salmonella typhi [38] = experiment: Antibacterial activity against Salmonella typhi at 25 ug after 24 hrs by disc diffusion assay; assay type: functional, Salmonella enterica subsp. enterica serovar Typhi; details: Salmonella enterica, read-out: IZ

## CCC1[C@@H]2Nc3ccc(Cl)cc3C(c3ccccc3)[C@H]2CN1OS(=O)(=O)c1ccc(C)cc1 (some centres not stated)
Escherichia coli [1]
  DNA gyrase inhibition (active/inactive): Active
Salmonella typhi [2]
  zone of inhibition at 5 µg/disc: 10 mm
Escherichia coli [3]
  inhibition of gyrase mRNA expression (active/not active): Active
Escherichia coli [4]
  zone of inhibition at 5 µg/disc: 10 mm
Klebsiella pneumoniae [5]
  zone of inhibition at 5 µg/disc: 20 mm
Bacillus subtilis [6]
  MIC50: 128 µg/mL (≈ 265 µM)
  MIC90: 128 µg/mL (≈ 265 µM)
Pseudomonas aeruginosa [7]
  zone of inhibition at 10 µg/disc: 16 mm
Staphylococcus aureus [8]
  zone of inhibition at 25 µg/disc: 17 mm
Escherichia coli [9]
  zone of inhibition at 10 µg/disc: 16 mm
Staphylococcus aureus [10]
  zone of inhibition at 5 µg/disc: 9 mm
Pseudomonas aeruginosa [11]
  MIC50: 128 µg/mL (≈ 265 µM)
  MIC90: 128 µg/mL (≈ 265 µM)
Escherichia coli [12]
  zone of inhibition at 15 µg/disc: 18 mm
Salmonella typhi [13]
  zone of inhibition at 20 µg/disc: 20 mm
Staphylococcus aureus [14]
  zone of inhibition at 20 µg/disc: 14 mm
Klebsiella pneumoniae [15]
  zone of inhibition at 20 µg/disc: 34 mm
Pseudomonas aeruginosa [16]
  zone of inhibition at 20 µg/disc: 22 mm
Salmonella typhi [17]
  zone of inhibition at 10 µg/disc: 16 mm
Pseudomonas aeruginosa [18]
  zone of inhibition at 5 µg/disc: 10 mm
Salmonella typhi [19]
  MIC50: 128 µg/mL (≈ 265 µM)
  MIC90: 128 µg/mL (≈ 265 µM)
Escherichia coli [20]
  MIC50: 128 µg/mL (≈ 265 µM)
  MIC90: 128 µg/mL (≈ 265 µM)
Bacillus subtilis [21]
  zone of inhibition at 10 µg/disc: 7 mm
Escherichia coli [22]
  inhibition: Active
Salmonella typhi [23]
  zone of inhibition at 15 µg/disc: 18 mm
Bacillus subtilis [24]
  zone of inhibition at 15 µg/disc: 9 mm
Bacillus subtilis [25]
  zone of inhibition at 25 µg/disc: 12 mm
Klebsiella pneumoniae [26]
  MIC50: 128 µg/mL (≈ 265 µM)
  MIC90: 128 µg/mL (≈ 265 µM)
Pseudomonas aeruginosa [27]
  zone of inhibition at 15 µg/disc: 17 mm
Escherichia coli [28]
  zone of inhibition at 25 µg/disc: 23 mm
Staphylococcus aureus [29]
  MIC50: 128 µg/mL (≈ 265 µM)
  MIC90: 128 µg/mL (≈ 265 µM)
Klebsiella pneumoniae [30]
  zone of inhibition at 25 µg/disc: 36 mm
Escherichia coli [31]
  zone of inhibition at 20 µg/disc: 20 mm
Pseudomonas aeruginosa [32]
  zone of inhibition at 25 µg/disc: 24 mm
Klebsiella pneumoniae [33]
  zone of inhibition at 10 µg/disc: 26 mm
Staphylococcus aureus [34]
  zone of inhibition at 10 µg/disc: 12 mm
Bacillus subtilis [35]
  zone of inhibition at 20 µg/disc: 10 mm
Staphylococcus aureus [36]
  zone of inhibition at 15 µg/disc: 13 mm
Klebsiella pneumoniae [37]
  zone of inhibition at 15 µg/disc: 30 mm
Salmonella typhi [38]
  zone of inhibition at 25 µg/disc: 22 mm

## CCC1[C@H]2c3c(n(C)c4ccccc4c3=O)OC(c3ccccc3)[C@@H]2CN1OS(=O)(=O)c1ccc(C)cc1 (mixture of isomers)
Escherichia coli [1]
  DNA gyrase inhibition (active/inactive): Active
Salmonella typhi [2]
  zone of inhibition at 5 µg/disc: 10 mm
Escherichia coli [3]
  inhibition of gyrase mRNA expression (active/not active): Active
Escherichia coli [4]
  zone of inhibition at 5 µg/disc: 12 mm
Klebsiella pneumoniae [5]
  zone of inhibition at 5 µg/disc: 20 mm
Bacillus subtilis [6]
  MIC50: 128 µg/mL
  MIC90: 128 µg/mL
Pseudomonas aeruginosa [7]
  zone of inhibition at 10 µg/disc: 14 mm
Staphylococcus aureus [8]
  zone of inhibition at 25 µg/disc: 36 mm
Escherichia coli [9]
  zone of inhibition at 10 µg/disc: 14 mm
Staphylococcus aureus [10]
  zone of inhibition at 5 µg/disc: 20 mm
Pseudomonas aeruginosa [11]
  MIC50: 128 µg/mL
  MIC90: 128 µg/mL
Escherichia coli [12]
  zone of inhibition at 15 µg/disc: 16 mm
Salmonella typhi [13]
  zone of inhibition at 20 µg/disc: 22 mm
Staphylococcus aureus [14]
  zone of inhibition at 20 µg/disc: 30 mm
Klebsiella pneumoniae [15]
  zone of inhibition at 20 µg/disc: 34 mm
Pseudomonas aeruginosa [16]
  zone of inhibition at 20 µg/disc: 20 mm
Salmonella typhi [17]
  zone of inhibition at 10 µg/disc: 16 mm
Pseudomonas aeruginosa [18]
  zone of inhibition at 5 µg/disc: 10 mm
Salmonella typhi [19]
  MIC50: 128 µg/mL
  MIC90: 128 µg/mL
Escherichia coli [20]
  MIC50: 128 µg/mL
  MIC90: 128 µg/mL
Escherichia coli [22]
  inhibition: Active
Salmonella typhi [23]
  zone of inhibition at 15 µg/disc: 18 mm
Bacillus subtilis [24]
  zone of inhibition at 15 µg/disc: 6 mm
Bacillus subtilis [25]
  zone of inhibition at 25 µg/disc: 9 mm
Klebsiella pneumoniae [26]
  MIC50: 128 µg/mL
  MIC90: 128 µg/mL
Pseudomonas aeruginosa [27]
  zone of inhibition at 15 µg/disc: 16 mm
Escherichia coli [28]
  zone of inhibition at 25 µg/disc: 23 mm
Staphylococcus aureus [29]
  MIC50: 128 µg/mL
  MIC90: 128 µg/mL
Klebsiella pneumoniae [30]
  zone of inhibition at 25 µg/disc: 36 mm
Escherichia coli [31]
  zone of inhibition at 20 µg/disc: 22 mm
Pseudomonas aeruginosa [32]
  zone of inhibition at 25 µg/disc: 23 mm
Klebsiella pneumoniae [33]
  zone of inhibition at 10 µg/disc: 26 mm
Staphylococcus aureus [34]
  zone of inhibition at 10 µg/disc: 24 mm
Bacillus subtilis [35]
  zone of inhibition at 20 µg/disc: 7 mm
Staphylococcus aureus [36]
  zone of inhibition at 15 µg/disc: 26 mm
Klebsiella pneumoniae [37]
  zone of inhibition at 15 µg/disc: 30 mm
Salmonella typhi [38]
  zone of inhibition at 25 µg/disc: 24 mm
